Source: US10544156B2, “Hemi-synthetic trilobine analogs for use as a drug” (PIERRE FABRE MEDICAMENT, priority 2015, dated 2020)

Assays:
Assay type in all cases: cell-based, human
[1] = system: CMV promoter in KG-1-Luc cells; assay: CMV promoter analysis by NOMe-Seq (CpG methylation and chromatin accessibility); conditions: at 5 μM, 24 h; for DNA demethylation, KG1 CMV-Luc model: methylated cytosine treated vs non treated; for Chromatin accessibility, KG1 CMV-Luc model: ratio of GpC methylation
Experimental: Using the Nucleosome Occupancy and Methylome Sequencing (NOMe-Seq) technique, the methylation status of the CMV promoter and the position of the nucleosomes on such promoter were both analysed.
NOMe-seq is a modified version of the methylation-dependent single promoter assay described by Miranda et al. (Curr Protoc Mol Biol. 2010 21.17.1-16) and the methylase-based DNA assay was performed as previously described with minor modifications. After nuclei extraction, GpC DNA methyltransferase M.CviPI (New England Biolabs) reactions were done in M.CviPI reaction buffer. GpC methyltransferase treatment was followed by DNA extraction, sodium bisulfite conversion, PCR amplification of the region of interest, cloning, and sequencing of individual clones to reveal the structure of single replicas as functional units. After treatment with the compounds or with DMSO, KG-1-Luc cells were centrifuged for 5 min at 500×g. Cell pellets were washed in ice-cold PBS, resuspended in 1 mL of ice-cold nuclei buffer [10 mM Tris (pH 7.4), 10 mM NaCl, 3 mM MgCl2, 0.1 mM EDTA, and 0.5% Nonidet P-40, plus protease inhibitors] per 2×10^6 cells, and incubated on ice for 10 min. Nuclei were recovered by centrifugation at 900×g for 5 min, washed twice in nuclei wash buffer [10 mM Tris (pH 7.4), 10 mM NaCl, […], and 0.1 mM EDTA containing protease inhibitors], and resuspended with 200 μL in 1×M.CviPI reaction buffer supplemented with 0.3 M sucrose, 160 μM SAM (New England Biolabs). 100 μL of purified genomic DNA were treated with 100 U of M.CviPI for 15 min at 37° C. in 200 μL final volume. The other part of 100 μL of purified genomic DNA were not treated with 100 U of M.CviPI but just incubated for 15 min at 37° C. to obtain CpG methylation profile. Reactions were stopped by the addition of an equal volume of stop solution [20 mM Tris.HCl (pH 7.9), 600 mM NaCl, 1% SDS, 10 mM EDTA, and 400 μg/mL Proteinase K] and incubated at 55° C. overnight. DNA was purified by phenol/chloroform extraction and ethanol precipitation. Bisulfite conversion was performed with the EZ DNA Methylation-Gold Kit (Zymo Research). Bisulfited DNA was eluted with 12 μL of water and 8 μL were used for CMV amplification.
The CMV promoter DNA amplification was carried on 8.3 μL eluted bisulfited DNA in 20 μL PCR reaction containing 1×KAPA2G Buffer A, 2.0 mM MgCl2, 200 μM dNTPs, 125 nM each primer and 1.0 units KAPA2G™ Robust HotStart DNA Polymerase (KapaBiosystems) on C1000 Touch™ thermal cycler 95° C. 3 min following by 95° C. for 20 sec, 55° C. for 30 sec, 72° C. for 30 sec×40 cycles and final extension at 72° C. 1 min. PCR fragments were quality controlled by agarose gel electrophoresis.
Steps of cloning and sequencing were as those described previously except that M13 PCR was used to amplify the cloned sequence in 20 μL PCR reaction volume containing 1×KAPA2G Buffer B, 2.0 mM MgCl2, 200 μM dNTPs, 125 nM each primer and 1.0 U KAPA2G™ Robust HotStart DNA Polymerase (KapaBiosystems) on C1000 Touch™ thermal cycler 95° C. 3 min following by 95° C. for 20 sec, 55° C. for 30 sec, 72° C. for 30 sec×40 cycles and final extension at 72° C. 1 min.
Genomic alignment and bisulfite sequence analysis was performed largely as previously described (Berman et al. Nat Genet 2012, 44, 40-6).
BISMA (Bisulfite Sequencing DNA Methylation Analysis) software was used for CpG methylation analysis of primary bisulfite sequencing data from subcloned individual molecules (Rohde et al. BMC Bioinformatics 2010, 11, 230). Methyl Viewer (Pardo et al. Nucleic Acids Res 2011, 39, e5) was used to obtain GC methylation results and nucleosome occupancy. The ratio of methylation is representative of the chromatin accessibility by M.CviPI and nucleosome occupancy. The combined methylation status for each clone by CpG (BISMA) or GpC (Methyl Viewer) site has been assembled. […]

[2] = system: P16 promoter in colon cancer cells HCT116; assay: C5 DNA methylation analysis of CDKN2A (P16) promoter by COBRA; conditions: at 0.1 μM
Experimental: Cancer cell lines (colon HCT116 or leukaemia KG1) were treated with the compounds as indicated in the Data Tables and then analysed as following.
DNA was isolated from cultured cells using the DNeasy Blood and Tissue Kit according to the manufacturer's specifications (Qiagen). DNA bisulphite conversion was performed on 2 μg of DNA using the EZ DNA Methylation-Gold Kit according to the manufacturer's specifications (Zymo Research) and bisulfited DNA was eluted with 10 μL of water.
Two different techniques were used to analyse the DNA methylation profile after bisulfite conversion of genomic DNA: (A) cloning and sequencing or (B) COBRA. The primers for each promoter are specified in Table 4.
This technique is a variation of bisulfite sequencing and combines bisulfite conversion based polymerase chain reaction with restriction digestion. DNA methylation levels are easily and quickly measured at fewer CpG sites than bisulfite-cloning-sequencing.
DNA amplification was set up with 100 ng eluted bisulfited DNA in 50 μL PCR reaction containing 1×PCR buffer, 2.5 mM MgCl2, 0.3 mM dNTPs, 400 nM each primer and 1.25 units EpiTaq HS (Takara) on C1000 Touch™ thermal cycler by 98° C. for 10 sec, 55° C. for 30 sec, 72° C. for 30 sec×40 cycles. 20 μL of PCR amplicons were digested in 30 μL by 2 units of BsiEI at 60° C. for 90 min. DNA fragments were migrated by 2% agarose gel electrophoresis and each band was quantified by Image Lab Software v2.0 (BioRad Laboratories).

[3] = system: luciferase reporter gene under control of methylated CMV promoter in KG-1 cells; assay: CMV-luc reexpression in KG-1 cells; conditions: for Induction Fold (IF) of luciferase gene reporter in KG-1 CMV-Luc: 24 h, vs DMSO; for IF-24 h, KG1 CMV-Luc model: at 5 μM, 24 h (Table 5)
Experimental: KG-1 cells were stably transfected with the firefly luciferase reporter gene (luc+ from pGL3; Promega) under the control of the cytomegalovirus (CMV) promoter (from pEGFP-N1; Clontech Laboratories Inc.) partially methylated (50%). 20,000 cells per well were seeded in a 96-well plate. After 24 h incubation in the presence of the test compound or solvant (DMSO), the induction of the promoter was measured by quantification of the luciferase signal with the Brite-lite assay system (PerkinElmer) according to the manufacturer's protocol. The luminescence was measured on an EnVision multilabel plate reader (PerkinElmer), and the data are expressed as the fold induction as compared with the DMSO control. The mean of three experiments and the standard error is reported.

SMILES | DNA demethylation, KG1 CMV-Luc model [1] [%] | Chromatin accessibility, KG1 CMV-Luc model [1] | Demethylation (COBRA) P16/HCT116 ([2]; after 7 days) | Induction Fold (IF) of luciferase gene reporter in KG-1 CMV-Luc ([3]; 0.1 μM) | Induction Fold (IF) of luciferase gene reporter in KG-1 CMV-Luc ([3]; 0.32 μM) | Induction Fold (IF) of luciferase gene reporter in KG-1 CMV-Luc ([3]; 1 μM) | Induction Fold (IF) of luciferase gene reporter in KG-1 CMV-Luc ([3]; 3.2 μM) | Induction Fold (IF) of luciferase gene reporter in KG-1 CMV-Luc ([3]; 5 μM) | Induction Fold (IF) of luciferase gene reporter in KG-1 CMV-Luc ([3]; 10 μM) | IF-24 h, KG1 CMV-Luc model [3] | Demethylation (COBRA) P16/HCT116 ([2]; after 3 days) [% after 3 days] | Demethylation (COBRA) P16/HCT116 ([2]; after 21 days) [% after 21 days]
CNC(=O)N1CCc2cc(OC)c3c4c2[C@@H]1Cc1ccc(cc1)Oc1cc(ccc1OC)C[C@H]1c2cc(c(cc2CCN1C)O3)O4 [Product 44] | −53 ± 6 | 2.3 ± 0.2 | 0% after 7 days (at 0.1 μM) | 1.1 ± 0.1 | 1.1 ± 0.1 | 1.3 ± 0.1 | 2.0 ± 0.1 | 2.5 ± 0.9 | 9.0 ± 1.3 | 5.9 ± 0.2 |  | 
COc1ccc2cc1Oc1ccc(cc1)C[C@@H]1NCCc3cc(OC)c4c(c31)Oc1cc3c(cc1O4)CCN(C)[C@H]3C2 [Trilobine (1), trilobine] | −37 ± 8 | 1.9 ± 0.1 | −52% after 7 days | 1.1 ± 0.1 | 1.9 ± 1.2 | 2.6 ± 1.4 | 3.5 ± 1.1 | 6.4 ± 0.1 |  | 5.8 ± 0.6 | −37 | −53
CCN(CC)CCCNC(=S)N1CCc2cc3c4cc2[C@@H]1Cc1ccc(OC)c(c1)Oc1ccc(cc1)C[C@H]1c2c(cc(OC)c(c2O4)O3)CCN1C(=S)NCCCN(CC)CC [Product 41] | 0 | 2.1 ± 0.1 | 0% after 7 days (at 0.1 μM) | 1.1 ± 0.1 | 1.1 ± 0.1 | 1.3 ± 0.1 | 2.0 ± 0.3 | 2.8 ± 0.2 | 3.1 ± 0.4 | 3.3 ± 0.1 |  | 
